Test results as given in patent US20240018128A1, “PESTICIDALLY ACTIVE HETEROCYCLIC DERIVATIVES WITH SULFUR CONTAINING SUBSTITUENTS” (SYNGENTA CROP PROTECTION AG, priority 2020, published 2024).

Assays:
Format in all cases: in vivo
[1] = system: Myzus persicae (green peach aphid); experiment: Example B4: Activity against Myzus persicae (green peach aphid), feeding/contact activity; settings: foliar, 144 h, application rate 200 ppm, sunflower leaf discs sprayed, aphid population of mixed ages, 6 days after infestation
Description: Example B4: Activity Against Myzus persicae (Green Peach Aphid) Feeding/Contact Activity
Sunflower leaf discs were placed onto agar in a 24-well microtiter plate and sprayed with aqueous test solutions prepared from 10,000 ppm DMSO stock solutions. After drying, the leaf discs were infested with an aphid population of mixed ages. The samples were assessed for mortality 6 days after infestation.

[2] = system: Frankliniella occidentalis (western flower thrips); experiment: Example B3: Activity against Frankliniella occidentalis (western flower thrips), feeding/contact activity; settings: foliar, 168 h, application rate 200 ppm, sunflower leaf discs sprayed, population of mixed ages, 7 days after infestation
Description: Example B3: Activity Against Frankliniella occidentalis (Western Flower Thrips) Feeding/Contact Activity
Sunflower leaf discs were placed on agar in 24-well microtiter plates and sprayed with aqueous test solutions prepared from 10,000 DMSO stock solutions. After drying the leaf discs were infested with a Frankliniella population of mixed ages. The samples were assessed for mortality 7 days after infestation.

[3] = system: Euschistus heros (neotropical brown stink bug); experiment: Example B2: Activity against Euschistus heros (neotropical brown stink bug); settings: 120 h, application rate 200 ppm, soybean leaves sprayed, N2 nymphs, 5 days after infestation, read-out: effect in at least one of the two categories (mortality or growth inhibition)
Description: Example B2: Activity Against Euschistus heros (Neotropical Brown Stink Bug)
Soybean leaves on agar in 24-well microtiter plates were sprayed with aqueous test solutions prepared from 10,000 ppm DMSO stock solutions. After drying the leaves were infested with N2 nymphs. The samples were assessed for mortality and growth inhibition in comparison to untreated samples 5 days after infestation.

[4] = system: Plutella xylostella (diamond back moth); experiment: Example B5: Activity against Plutella xylostella (diamond back moth); settings: 192 h, application rate 200 ppm, artificial diet treated by pipetting, eggs, 8 days after infestation, read-out: effect in at least one of the two categories (mortality or growth inhibition)
Description: Example B5: Activity Against Plutella xylostella (Diamond Back Moth)
24-well microtiter plates with artificial diet were treated with aqueous test solutions prepared from 10,000 ppm DMSO stock solutions by pipetting. After drying, Plutella eggs were pipetted through a plastic stencil onto a gel blotting paper and the plate was closed with it. The samples were assessed for mortality and growth inhibition in comparison to untreated samples 8 days after infestation. The following compounds gave an effect of at least 80% in at least one of the two categories (mortality or growth inhibition) at an application rate of 200 ppm: P1, P2, P4, P5, P6, P7, P9, P10, P11, P12, P13, P14, P15, P16, P17, P18.

[5] = system: Diabrotica balteata (corn root worm); experiment: Example B1: Activity against Diabrotica balteata (corn root worm); settings: 96 h, application rate 200 ppm, maize sprouts sprayed, L2 larvae, 4 days after infestation, read-out: effect in at least one of the two categories (mortality or growth inhibition)
Description: Example B1: Activity Against Diabrotica Balteata (Corn Root Worm)
Maize sprouts placed onto an agar layer in 24-well microtiter plates were treated with aqueous test solutions prepared from 10,000 ppm DMSO stock solutions by spraying. After drying, the plates were infested with L2 larvae (6 to 10 per well). The samples were assessed for mortality and growth inhibition in comparison to untreated samples 4 days after infestation.

[6] = system: Chilo suppressalis (striped rice stemborer); experiment: Example B8: Activity against Chilo suppressalis (striped rice stemborer); settings: 144 h, application rate 200 ppm, artificial diet treated by pipetting, L2 larvae, 6 days after infestation, read-out: control (mortality, anti-feeding effect or growth inhibition)
Description: Example B8: Activity Against Chilo suppressalis (Striped Rice Stemborer)
24-well microtiter plates with artificial diet were treated with aqueous test solutions prepared from 10,000 ppm DMSO stock solutions by pipetting. After drying, the plates were infested with L2 larvae (6-8 per well). The samples were assessed for mortality, anti-feeding effect, and growth inhibition in comparison to untreated samples 6 days after infestation. Control of Chilo suppressalis by a test sample is given when at least one of the categories mortality, anti-feedant effect, and growth inhibition is higher than the untreated sample.

[7] = system: Spodoptera littoralis (Egyptian cotton leaf worm); experiment: Example B6: Activity against Spodoptera littoralis (Egyptian cotton leaf worm); settings: foliar, 72 h, application rate 200 ppm, cotton leaf discs sprayed, L1 larvae, 3 days after infestation, read-out: control (mortality, anti-feeding effect or growth inhibition)
Description: Example B6: Activity Against Spodoptera littoralis (Egyptian Cotton Leaf Worm)
Cotton leaf discs were placed onto agar in 24-well microtiter plates and sprayed with aqueous test solutions prepared from 10,000 ppm DMSO stock solutions. After drying the leaf discs were infested with five L1 larvae. The samples were assessed for mortality, anti-feeding effect, and growth inhibition in comparison to untreated samples 3 days after infestation. Control of Spodoptera littoralis by a test sample is given when at least one of the categories mortality, anti-feedant effect, and growth inhibition is higher than the untreated sample.

[8] = system: Myzus persicae (green peach aphid); experiment: Example B9: Activity against Myzus persicae (green peach aphid), systemic activity; settings: 144 h, test rate 24 ppm, roots of infested pea seedlings placed into test solution, 6 days
Description: Example B9: Activity Against Myzus persicae (Green Peach Aphid). Systemic Activity
Roots of pea seedlings infested with an aphid population of mixed ages were placed directly into aqueous test solutions prepared from 10,000 DMSO stock solutions. The samples were assessed for mortality 6 days after placing seedlings into test solutions.

[9] = system: Bemisia tabaci (cotton white fly); experiment: Example B7: Activity against Bemisia tabaci (cotton white fly), feeding/contact activity; settings: foliar, 144 h, application rate 200 ppm, cotton leaf discs sprayed, adult white flies, 6 days after incubation
Description: Example B7: Activity Against Bemisia tabaci (Cotton White Fly) Feeding/Contact Activity
Cotton leaf discs were placed on agar in 24-well microtiter plates and sprayed with aqueous test solutions prepared from 10,000 ppm DMSO stock solutions. After drying the leaf discs were infested with adult white flies. The samples were checked for mortality 6 days after incubation.

CCS(=O)(=O)c1c(N2Cc3ccc(OC(F)(F)F)cc3C2=O)nc(-c2cnn(C3CC3)c2)n1C [Compound P1, 2-[2-(1-cyclopropylpyrazol-4-yl)-5-ethylsulfonyl-1-methyl-imidazol-4-yl]-6-(trifluoromethoxy)isoindolin-1-one]
≥ 80%: mortality at 200 ppm [1] | mortality at 200 ppm [2] | percent effect (mortality or growth inhibition) at 200 ppm [3] | effect (mortality or growth inhibition) at 200 ppm [4] | mortality or growth inhibition at 200 ppm [5] | control at 200 ppm [6] | control at 200 ppm [7]

CCS(=O)(=O)c1c(N2Cc3ncc(C(F)(F)F)cc3C2=O)nc(-c2cnn(CC3CC3)c2)n1C [Compound P9, 6-[2-[1-(cyclopropylmethyl)pyrazol-4-yl]-5-ethylsulfonyl-1-methyl-imidazol-4-yl]-3-(trifluoromethyl)-7H-pyrrolo[3,4-b]pyridin-5-one]
≥ 80%: mortality at 24 ppm [8] | mortality at 200 ppm [1] | percent effect (mortality or growth inhibition) at 200 ppm [3] | effect (mortality or growth inhibition) at 200 ppm [4] | mortality or growth inhibition at 200 ppm [5] | control at 200 ppm [6] | control at 200 ppm [7]

CCS(=O)(=O)c1c(N2Cc3ncc(C(F)(F)F)cc3C2=O)nc(-c2cnn(CC(F)(F)F)c2)n1C [Compound P10, 6-[5-ethylsulfonyl-1-methyl-2-[1-(2,2,2-trifluoroethyl)pyrazol-4-yl]imidazol-4-yl]-3-(trifluoromethyl)-7H-pyrrolo[3,4-b]pyridin-5-one]
≥ 80%: mortality at 24 ppm [8] | mortality at 200 ppm [1] | percent effect (mortality or growth inhibition) at 200 ppm [3] | effect (mortality or growth inhibition) at 200 ppm [4] | mortality or growth inhibition at 200 ppm [5] | control at 200 ppm [6] | control at 200 ppm [7]

CCS(=O)(=O)c1c(N2Cc3ncc(C(F)(F)F)cc3C2=O)nc(-c2cnn(C(F)F)c2)n1C [Compound P13, 6-[2-[1-(difluoromethyl)pyrazol-4-yl]-5-ethylsulfonyl-1-methyl-imidazol-4-yl]-3-(trifluoromethyl)-7H-pyrrolo[3,4-b]pyridin-5-one]
≥ 80%: mortality at 24 ppm [8] | mortality at 200 ppm [1] | percent effect (mortality or growth inhibition) at 200 ppm [3] | effect (mortality or growth inhibition) at 200 ppm [4] | mortality or growth inhibition at 200 ppm [5] | control at 200 ppm [6] | control at 200 ppm [7]

CCS(=O)(=O)c1c(N2Cc3ncc(C(F)(F)F)cc3C2=O)nc(C2CC2)n1C [Compound P17, 6-(2-cyclopropyl-5-ethylsulfonyl-1-methyl-imidazol-4-yl)-3-(trifluoromethyl)-7H-pyrrolo[3,4-b]pyridin-5-one]
≥ 80%: mortality at 24 ppm [8] | mortality at 200 ppm [1] | effect (mortality or growth inhibition) at 200 ppm [4] | mortality or growth inhibition at 200 ppm [5] | control at 200 ppm [6] | mortality at 200 ppm [9] | control at 200 ppm [7]
